Columns and labels:
[1] = test system: U266; test: Cell growth inhibition, U266; type: cell-based; conditions: Homo sapiens, U-266; U266 cell line; 24 hours; viability by WST-1 or Alamar Blue
Procedure: (§1) The compounds of Examples 1 and 2 were also tested for cell growth inhibition activity a gains two cell lines, MCF-7 and U266. […], suspended in RPMI 1640 media, supplemented with 10% FBS, were pipetted into 96-well plates at a density of 10,000 cells per milliliter in a volume of […] per well. Cells were allowed to equilibrate overnight at 37 C in 5% CO2. Cells were then incubated in the presence of the test compound at a concentrations ranging from 0.03 μM to 10 μM (at ½ log dilutions) for 24 hours. After the incubation period, cells were assessed for viability using either WST-1 (Biovision) or Alamar Blue (BioSourse). Values from treated cells were compared to values from control cells and values expressed as percent control.

[2] = molecular target: PKA (Bos taurus, UniProt P00517); test: Kinase activity at ATP Km,app, PKA; type: biochemical, bovine; conditions: 40 min, compound 2 μM
Procedure: (§2) PKA Kinase Activity: In a final reaction volume of 25 μl, PKA (b) (5-10 mU) is incubated with 8 mM MOPS pH 7.0, 0.2 mM EDTA, 30 μM LRRASLG (Kemptide), 10 mM MgAcetate and [γ-^33P-ATP] (specific activity approx. 500 cpm/pmol, concentration as required). The reaction is initiated by the addition of the MgATP mix. After incubation for 40 minutes at room temperature, the reaction is stopped by the addition of 5 μl of a 3% phosphoric acid solution. 10 μl of the reaction is the spotted onto a P30 filtermat and washed three times for 5 minutes in 50 mM phosphoric acid and once in methanol prior to drying and scintillation counting.

[3] = test system: MCF-7; test: Cell growth inhibition, MCF-7; type: cell-based; conditions: Homo sapiens, MCF7; MCF-7 cell line; 24 hours; viability by WST-1 or Alamar Blue
Procedure: as §1

[4] = molecular target: MKK6 (Homo sapiens, UniProt P52564); test: Protein kinase inhibition, MKK6; type: biochemical; conditions: Rate (μM) 2, read-out: % Control
[5] = molecular target: MINK (Homo sapiens, UniProt Q8N4C8); test: Protein kinase inhibition, MINK; type: biochemical; conditions: Rate (μM) 2, read-out: % Control
[6] = molecular target: EphA2 (Homo sapiens, UniProt P29317); test: Protein kinase inhibition, EphA2; type: biochemical; conditions: Rate (μM) 2, read-out: % Control
[7] = molecular target: Flt1 (Homo sapiens, UniProt P17948); test: Protein kinase inhibition, Flt1; type: biochemical; conditions: Rate (μM) 2, read-out: % Control
[8] = molecular target: P70S6K (Homo sapiens, UniProt P23443); test: Protein kinase inhibition, P70S6K; type: biochemical; conditions: Rate (μM) 2, read-out: % Control
[9] = test system: ROCKI; test: Protein kinase inhibition, ROCKI (rat); type: biochemical; conditions: Rate (μM) 2
[10] = molecular target: EphA7 (Homo sapiens, UniProt Q15375); test: Protein kinase inhibition, EphA7; type: biochemical; conditions: Rate (μM) 2, read-out: % Control
[11] = molecular target: p38γ (Homo sapiens, UniProt P53778); test: SAPK3 Kinase Activity (p38γ); type: biochemical
Procedure: SAPK3 Kinase Activity: In a final reaction volume of 25 μl, SAPK3 (h) (5-10 mU) is incubated with 25 mM Tris pH 7.5, 0.02 mM EGTA, 0.33 mg/ml myelin basic protein, 10 mM MgAcetate and [γ-^33P-ATP] (specific activity approx. 500 cpm/[…], concentration as required). The reaction is initiated by the addition of the MgATP mix. After incubation for 40 minutes at room temperature, the reaction is stopped by the addition of 5 μL of a 3% phosphoric acid solution. 10 μL of the reaction is the spotted onto a P30 filtermat and washed three times for 5 minutes in 75 mM phosphoric acid and once in methanol prior to drying and scintillation counting.

[12] = molecular target: EphA3 (Homo sapiens, UniProt P29320); test: Protein kinase inhibition, EphA3; type: biochemical; conditions: Rate (μM) 2, read-out: % Control
[13] = molecular target: Ret (Homo sapiens, UniProt P07949); test: Protein kinase inhibition, Ret; type: biochemical; conditions: Rate (μM) 2, read-out: % Control
[14] = molecular target: FGFR2 (Homo sapiens, UniProt P21802); test: Protein kinase inhibition, FGFR2; type: biochemical; conditions: Rate (μM) 2, read-out: % Control
[15] = molecular target: KDR (Homo sapiens, UniProt P35968); test: Protein kinase inhibition, KDR; type: biochemical; conditions: Rate (μM) 2, read-out: % Control
[16] = molecular target: Lck (Homo sapiens, UniProt P06239); test: Lck Kinase Activity; type: biochemical
Procedure: Lck Kinase Activity: In a final reaction volume of […], Lck (h) (5-10 mU) is incubated with 50 mM Tris pH 7.5, 0.1 mM EGTA, 0.1 mM Na3VO4, 250 μM KVEKIGEGTYGVVYK (Cdc2 peptide), 10 mM MgAcetate and [γ-^33P-ATP] (specific activity approx. 500 cpm/pmol, concentration as required). The reaction is initiated by the addition of the MgATP mix. After incubation for 40 minutes at room temperature, the reaction is stopped by the addition of 5 μl of a 3% phosphoric acid solution. 10 μl of the reaction is then spotted onto a P30 filtermat and washed three times for 5 minutes in 75 mM phosphoric acid and once in methanol prior to drying and scintillation counting.

[17] = molecular target: TrkB (Homo sapiens, UniProt Q16620); test: TrkB Kinase Activity; type: biochemical
Procedure: as §2, with “TrkB Kinase” for “PKA Kinase”, “μl, TrkB (h)” for “μl, PKA (b)”, “EDTA, 0.1 mg/ml poly(Glu, Tyr) 4:1,” for “EDTA, 30 μM LRRASLG (Kemptide),”, “is then” for “is the”, “a Filtermat A” for “a P30 filtermat”, “in 75” for “in 50”

[18] = molecular target: Ros (Homo sapiens, UniProt P08922); test: Protein kinase inhibition, Ros; type: biochemical; conditions: Rate (μM) 2, read-out: % Control
Sequence of Ros (P08922 28-2347): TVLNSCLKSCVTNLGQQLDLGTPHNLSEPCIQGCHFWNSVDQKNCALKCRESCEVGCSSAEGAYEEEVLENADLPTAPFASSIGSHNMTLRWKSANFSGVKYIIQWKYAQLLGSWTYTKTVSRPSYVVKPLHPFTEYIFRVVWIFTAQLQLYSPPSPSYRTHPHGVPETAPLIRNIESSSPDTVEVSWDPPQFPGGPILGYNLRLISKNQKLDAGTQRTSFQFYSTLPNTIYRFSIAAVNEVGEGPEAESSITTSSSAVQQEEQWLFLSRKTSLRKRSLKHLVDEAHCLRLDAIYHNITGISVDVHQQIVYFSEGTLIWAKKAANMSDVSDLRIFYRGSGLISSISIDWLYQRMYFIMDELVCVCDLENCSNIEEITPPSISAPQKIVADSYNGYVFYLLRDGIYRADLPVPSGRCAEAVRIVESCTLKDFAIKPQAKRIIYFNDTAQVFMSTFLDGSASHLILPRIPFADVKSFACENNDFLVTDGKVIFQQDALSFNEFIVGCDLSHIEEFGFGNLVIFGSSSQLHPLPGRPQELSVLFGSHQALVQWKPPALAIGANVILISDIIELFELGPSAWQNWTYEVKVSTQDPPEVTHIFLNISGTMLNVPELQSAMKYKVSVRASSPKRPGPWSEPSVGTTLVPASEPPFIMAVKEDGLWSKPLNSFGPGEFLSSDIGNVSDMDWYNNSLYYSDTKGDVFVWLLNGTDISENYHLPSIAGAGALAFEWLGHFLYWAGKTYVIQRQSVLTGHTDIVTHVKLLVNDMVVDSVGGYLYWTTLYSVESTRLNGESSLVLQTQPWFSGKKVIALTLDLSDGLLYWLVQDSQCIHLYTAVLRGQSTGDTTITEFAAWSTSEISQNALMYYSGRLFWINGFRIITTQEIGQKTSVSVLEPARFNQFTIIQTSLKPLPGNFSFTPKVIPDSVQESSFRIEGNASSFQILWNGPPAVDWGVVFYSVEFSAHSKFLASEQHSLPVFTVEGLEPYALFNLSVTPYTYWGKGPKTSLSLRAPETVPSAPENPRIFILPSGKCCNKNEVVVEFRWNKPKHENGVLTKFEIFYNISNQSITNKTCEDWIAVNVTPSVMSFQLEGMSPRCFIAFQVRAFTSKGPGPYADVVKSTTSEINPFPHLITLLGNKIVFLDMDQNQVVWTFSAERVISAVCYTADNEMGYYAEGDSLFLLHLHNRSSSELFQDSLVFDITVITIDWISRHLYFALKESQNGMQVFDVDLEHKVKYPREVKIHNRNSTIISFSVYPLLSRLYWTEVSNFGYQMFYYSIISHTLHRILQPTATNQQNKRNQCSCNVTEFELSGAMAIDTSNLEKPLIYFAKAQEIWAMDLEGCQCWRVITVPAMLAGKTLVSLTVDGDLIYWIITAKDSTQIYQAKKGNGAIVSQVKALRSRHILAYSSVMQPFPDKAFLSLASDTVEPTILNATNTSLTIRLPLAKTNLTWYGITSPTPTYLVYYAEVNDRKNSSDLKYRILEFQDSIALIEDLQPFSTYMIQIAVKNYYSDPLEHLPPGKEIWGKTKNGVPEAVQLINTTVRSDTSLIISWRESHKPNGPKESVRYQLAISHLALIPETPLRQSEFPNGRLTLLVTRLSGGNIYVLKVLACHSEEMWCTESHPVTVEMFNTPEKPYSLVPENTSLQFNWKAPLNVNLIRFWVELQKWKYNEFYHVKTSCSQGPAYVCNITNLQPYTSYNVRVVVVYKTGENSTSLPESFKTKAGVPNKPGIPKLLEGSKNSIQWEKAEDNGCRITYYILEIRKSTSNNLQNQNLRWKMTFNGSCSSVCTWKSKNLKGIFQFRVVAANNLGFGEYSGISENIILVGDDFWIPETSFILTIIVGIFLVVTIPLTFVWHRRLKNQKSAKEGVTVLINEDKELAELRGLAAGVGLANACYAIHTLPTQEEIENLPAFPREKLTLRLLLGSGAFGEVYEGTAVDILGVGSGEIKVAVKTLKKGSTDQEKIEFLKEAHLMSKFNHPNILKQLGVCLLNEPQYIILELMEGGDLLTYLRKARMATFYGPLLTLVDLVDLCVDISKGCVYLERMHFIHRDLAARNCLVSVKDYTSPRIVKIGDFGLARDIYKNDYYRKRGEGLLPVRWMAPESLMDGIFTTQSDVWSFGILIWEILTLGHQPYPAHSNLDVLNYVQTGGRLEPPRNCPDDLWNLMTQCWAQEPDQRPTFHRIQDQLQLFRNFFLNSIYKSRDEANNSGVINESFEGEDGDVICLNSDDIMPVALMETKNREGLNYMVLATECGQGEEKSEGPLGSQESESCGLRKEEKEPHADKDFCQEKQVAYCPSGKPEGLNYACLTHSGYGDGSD

Sequence of TrkB (Q16620 32-822): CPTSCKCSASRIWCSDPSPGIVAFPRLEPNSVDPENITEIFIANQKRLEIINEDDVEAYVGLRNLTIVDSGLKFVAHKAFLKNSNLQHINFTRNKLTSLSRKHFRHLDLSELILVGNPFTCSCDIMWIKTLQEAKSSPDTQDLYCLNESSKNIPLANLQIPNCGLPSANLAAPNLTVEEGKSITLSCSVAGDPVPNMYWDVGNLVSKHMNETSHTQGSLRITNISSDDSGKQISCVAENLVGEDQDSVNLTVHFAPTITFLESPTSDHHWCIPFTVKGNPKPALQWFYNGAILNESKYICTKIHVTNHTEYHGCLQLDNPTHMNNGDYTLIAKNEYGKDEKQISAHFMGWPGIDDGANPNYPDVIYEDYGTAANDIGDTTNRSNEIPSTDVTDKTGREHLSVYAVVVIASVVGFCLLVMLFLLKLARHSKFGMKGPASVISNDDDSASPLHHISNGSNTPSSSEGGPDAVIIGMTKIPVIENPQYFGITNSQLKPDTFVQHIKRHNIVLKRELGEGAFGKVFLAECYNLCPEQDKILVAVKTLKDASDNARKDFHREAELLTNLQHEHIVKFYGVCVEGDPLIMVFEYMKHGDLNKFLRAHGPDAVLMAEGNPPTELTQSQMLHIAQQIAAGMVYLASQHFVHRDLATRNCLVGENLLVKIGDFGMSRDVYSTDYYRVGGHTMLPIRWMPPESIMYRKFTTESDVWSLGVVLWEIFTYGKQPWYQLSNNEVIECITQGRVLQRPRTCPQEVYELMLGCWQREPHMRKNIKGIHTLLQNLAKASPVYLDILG
Sequence of p38γ (P53778 whole entry): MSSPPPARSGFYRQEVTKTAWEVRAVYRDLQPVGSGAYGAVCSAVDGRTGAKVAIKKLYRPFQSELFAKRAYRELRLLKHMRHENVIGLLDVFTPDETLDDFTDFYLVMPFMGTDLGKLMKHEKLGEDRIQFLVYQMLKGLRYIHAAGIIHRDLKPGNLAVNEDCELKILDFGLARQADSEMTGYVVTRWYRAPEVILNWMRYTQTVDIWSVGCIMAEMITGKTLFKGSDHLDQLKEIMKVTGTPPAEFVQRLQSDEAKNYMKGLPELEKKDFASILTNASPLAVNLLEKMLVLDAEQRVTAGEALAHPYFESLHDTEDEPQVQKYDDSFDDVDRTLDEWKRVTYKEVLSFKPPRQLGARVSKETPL
Sequence of Lck (P06239 whole entry): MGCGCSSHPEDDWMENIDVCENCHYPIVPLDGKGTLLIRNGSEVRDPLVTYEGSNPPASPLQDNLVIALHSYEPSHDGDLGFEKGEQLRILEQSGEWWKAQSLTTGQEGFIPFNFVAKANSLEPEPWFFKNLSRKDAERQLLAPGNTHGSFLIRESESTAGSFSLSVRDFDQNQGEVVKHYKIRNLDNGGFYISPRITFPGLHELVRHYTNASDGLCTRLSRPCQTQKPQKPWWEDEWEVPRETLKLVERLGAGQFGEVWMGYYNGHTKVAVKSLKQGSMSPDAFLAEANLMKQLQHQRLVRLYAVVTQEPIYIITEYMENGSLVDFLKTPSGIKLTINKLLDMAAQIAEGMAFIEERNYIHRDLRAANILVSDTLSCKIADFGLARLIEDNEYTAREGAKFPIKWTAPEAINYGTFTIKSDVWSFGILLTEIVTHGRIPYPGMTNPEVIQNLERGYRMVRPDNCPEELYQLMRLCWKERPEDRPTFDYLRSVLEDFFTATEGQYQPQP
Sequence of MKK6 (P52564 whole entry): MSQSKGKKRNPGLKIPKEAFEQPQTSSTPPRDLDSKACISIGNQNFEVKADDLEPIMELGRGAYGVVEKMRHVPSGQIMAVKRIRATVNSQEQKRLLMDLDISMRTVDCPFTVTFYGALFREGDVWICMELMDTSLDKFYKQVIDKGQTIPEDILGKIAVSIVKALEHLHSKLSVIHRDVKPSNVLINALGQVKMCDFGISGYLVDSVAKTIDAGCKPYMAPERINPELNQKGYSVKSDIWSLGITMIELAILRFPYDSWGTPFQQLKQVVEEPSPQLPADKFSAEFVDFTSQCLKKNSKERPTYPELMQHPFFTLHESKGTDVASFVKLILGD
Sequence of P70S6K (P23443 whole entry): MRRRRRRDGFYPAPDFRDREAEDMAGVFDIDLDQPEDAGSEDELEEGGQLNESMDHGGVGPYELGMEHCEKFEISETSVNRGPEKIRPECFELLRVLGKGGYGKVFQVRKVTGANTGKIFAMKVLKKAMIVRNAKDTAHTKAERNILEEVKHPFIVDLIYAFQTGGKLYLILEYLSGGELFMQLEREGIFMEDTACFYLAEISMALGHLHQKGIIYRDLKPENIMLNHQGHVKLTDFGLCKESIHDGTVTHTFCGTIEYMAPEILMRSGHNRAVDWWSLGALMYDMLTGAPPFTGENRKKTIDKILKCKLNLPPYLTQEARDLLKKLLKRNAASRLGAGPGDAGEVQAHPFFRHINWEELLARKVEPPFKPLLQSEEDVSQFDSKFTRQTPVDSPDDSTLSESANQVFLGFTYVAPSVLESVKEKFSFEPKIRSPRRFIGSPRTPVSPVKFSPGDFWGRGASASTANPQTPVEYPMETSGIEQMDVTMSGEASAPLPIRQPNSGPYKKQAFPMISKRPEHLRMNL

Structure (SMILES): CC(C)(C)c1cc(C(=O)N2CCNC(=O)C2)c(NC(=O)Nc2ccc(Oc3ccncc3)cc2)s1 [Example 2, 1-(5-tert-Butyl-3-(3-oxo-piperazine-1-carbonyl)thiophen-2-yl)-3-(4-(pyridin-4-yloxy)phenyl)urea]
- IC50 [1]: < 10 µM
- inhibition at 2 µM [2]: 0 to 25%
- IC50 [3]: < 10 µM

Structure (SMILES): CC(C)(C)c1cc(C(=O)N2CCS(=O)(=O)CC2)c(NC(=O)Nc2ccc(Oc3ccncc3)cc2)s1 [Example 3, 1-[5-tert-Butyl-3-(1,1-dioxo-1λ^6-thiomorpholine-4-carbonyl)thiophen-2-yl]-3-[4-(pyridin-4-yloxy)phenyl]urea]
- remaining activity at 2 µM [4]: 76 to 100%
- remaining activity at 2 µM [5]: 51 to 75%
- remaining activity at 2 µM [6]: 76 to 100%
- remaining activity at 2 µM [7]: 76 to 100%
- remaining activity at 2 µM [8]: 51 to 75%
- % inhibition [9]: 51-75%
- remaining activity at 2 µM [10]: 76 to 100%
- remaining activity at 2 µM ([11]; 40 min, P38g, Human, Rate (μM) 2, read-out: % Control): 76 to 100%
- % Inhibition at 2 μm ([11]; p38γ, compound at 2 μm): 76-100%
- remaining activity at 2 µM [12]: 76 to 100%
- remaining activity at 2 µM [13]: 76 to 100%
- remaining activity at 2 µM [14]: 51 to 75%
- remaining activity at 2 µM [15]: 76 to 100%
- remaining activity at 2 µM ([16]; 40 min, Lck, Human, Rate (μM) 2, read-out: % Control): 51 to 75%
- % Inhibition at 2 μm ([16]; LCK, compound at 2 μm): 51-75%
- remaining activity at 2 µM ([17]; 40 min, Human, Rate (μM) 2, read-out: % Control): 76 to 100%
- % Inhibition at 2 μm ([17]; compound at 2 μm): 76-100%
- remaining activity at 2 µM [18]: 76 to 100%

Structure (SMILES): CC(C)(C)c1cc(C(=O)N2CCNC(=O)CC2)c(NC(=O)Nc2ccc(Oc3ccncc3)cc2)s1 [Example 4, 1-(5-tert-Butyl-3-(5-oxo-[1,4]diazepane-1-carbonyl)thiophen-2-yl)-3-(4-(pyridin-4-yloxy)phenyl)urea]
- inhibition at 2 µM [2]: 0 to 25%

Structure (SMILES): CC(C)(C)c1cc(C(=O)N2CCNS(=O)(=O)CC2)c(NC(=O)Nc2ccc(Oc3ccncc3)cc2)s1 [Example 1, 1-(5-tert-Butyl-3-(1,1-dioxo-1λ^6-[1,2,5]thiadiazepane-5-carbonyl)thiophen-2-yl)-3-(4-(pyridin-4-yloxy)phenyl)urea]
- IC50 [1]: < 10 µM
- inhibition at 2 µM [2]: 0 to 25%
- IC50 [3]: < 10 µM

Reference: patent US7612200B2, “Inhibitors of protein kinases” (Locus Pharmaceuticals, Inc., priority 2004, dated 2009)
